The values below come from patent US7700560B2 (University of Maryland, Baltimore County, priority 2003, dated 2010).

The structures appear in SMILES notation.

For assay [1], the system named is DMS114 lung and DU145 prostate xenografts. The note with it: dicyclopentyl diester; cited from earlier work.
The test system of assay [2] is lung tumor cell lines NCI-H460, NCI-H226, A549, NCI-H23, DMS273, DMS114, NCI-H522. The note with it: dicyclopentyl diester; cited from earlier work.
The target of another assay is T1, yeast GlxI (Saccharomyces cerevisiae, UniProt P50107).
T1 sequence (P50107 1-326): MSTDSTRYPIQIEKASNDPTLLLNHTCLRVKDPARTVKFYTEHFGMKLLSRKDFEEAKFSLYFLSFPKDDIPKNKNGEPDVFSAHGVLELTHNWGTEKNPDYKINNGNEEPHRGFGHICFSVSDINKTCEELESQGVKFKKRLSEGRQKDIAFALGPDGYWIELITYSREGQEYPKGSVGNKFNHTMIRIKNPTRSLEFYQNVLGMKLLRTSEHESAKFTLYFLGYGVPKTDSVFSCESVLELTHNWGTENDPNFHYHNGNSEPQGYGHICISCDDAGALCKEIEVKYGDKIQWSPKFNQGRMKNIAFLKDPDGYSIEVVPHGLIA
Nature of the assay: Competitive inhibition constants (Kis) with yeast GlxI. In kind it is biochemical. The note with it: sodium phosphate buffer, 50 mM, pH 7, 25° C.; mean (±S.D.) duplicate; read-out: Ki, yGlxI. The method, then:
(§1) Competitive inhibition constants (Kis) of bivalent and monovalent enzyme inhibitors with human GlxI or yeast GlxI (yGlxI) were obtained from the change in the initial rates of product formation at various concentrations of the substrate in the presence or absence of the inhibitor. To a 1 ml cuvette containing 50 mM sodium phosphate buffer, pH 7.0, 0.5 mM EDTA, 25° C. and different concentrations of thiohemiacetal substrates with fixed concentrations of inhibitor was added approximately 0.02 U of enzyme. The initial rates of product formation were followed on the basis of the increase in absorbancy at 240 nm. Inhibition constants were obtained by fitting the initial rate data to the equation for competitive inhibition.

For the next assay, the target named is T2, human GlxI (Homo sapiens, UniProt Q04760).
T2 construct: hGlxI from human erythrocytes; from tissue; host or cells: human erythrocytes
T2 sequence (Q04760 2-184 limits assumed): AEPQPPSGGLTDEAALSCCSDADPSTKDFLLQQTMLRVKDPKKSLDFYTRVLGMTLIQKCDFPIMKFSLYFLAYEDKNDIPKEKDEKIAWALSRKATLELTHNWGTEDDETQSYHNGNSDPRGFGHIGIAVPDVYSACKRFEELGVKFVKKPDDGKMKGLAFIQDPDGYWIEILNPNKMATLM
As to the kind of experiment: Competitive inhibition constants (Kis) with human GlxI. In kind it is biochemical. The method, then: as §1

Another assay has as its system GSH peroxidase. Nature of the assay: Inhibition of GSH peroxidase. The class given is biochemical. The note with it: up to an inhibitor concentration of 20 μM.
Assay [3] has as its target T3, human placental GSH transferase (Homo sapiens, UniProt P09211).
T3 construct: human placental GSH transferase; from tissue; host or cells: human placenta
As to the kind of experiment: Inhibition of human placental GSH transferase. The class given is biochemical. The note with it: up to an inhibitor concentration of 20 μM.

In the next assay the target is T4, bovine liver GlxII (Bos taurus, UniProt Q3B7M2).
T4 construct: yeast GlxI (yGlxI) and bovine liver GlxII (bGlXII); from tissue; host or cells: bovine liver
Nature of the assay: Competitive inhibition constants (Kis) with bovine liver GlxII. The note with it: sodium phosphate buffer, 50 mM, pH 7, 25° C.; mean (±S.D.) duplicate; read-out: Ki, bGlxII. The class given is biochemical.

T3 sequence (P09211 2-210 limits assumed): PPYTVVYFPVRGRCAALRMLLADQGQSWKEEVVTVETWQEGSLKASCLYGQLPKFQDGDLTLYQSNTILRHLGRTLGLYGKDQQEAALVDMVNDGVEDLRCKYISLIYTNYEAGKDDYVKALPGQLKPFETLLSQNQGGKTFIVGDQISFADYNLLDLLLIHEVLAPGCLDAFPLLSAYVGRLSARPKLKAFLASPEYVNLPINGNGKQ

`NC(CCC(=O)NC(CSCc1ccc(Br)cc1)C(=O)NCC(=O)OC1CCCC1)C(=O)OC1CCCC1` (stereo not shown): the “inhibition of DMS144 and human prostate DU145 xenografts in nude mice” value in assay [1] is “effectively inhibited”. Besides, the “inhibition of lung tumor cell lines in vitro” value in assay [2] was “effectively inhibited”.

As to `O=C(O)CNC(=O)[C@H](CSC(=O)N(O)c1ccc(Cl)cc1)NC(=O)CC[C@H](NC(=O)CCNC(=O)CCNC(=O)CCNC(=O)CCNC(=O)CCNC(=O)CCNC(=O)CCCCCCC(=O)NCCC(=O)NCCC(=O)NCCC(=O)NCCC(=O)NCCC(=O)NCCC(=O)N[C@@H](CCC(=O)N[C@@H](CSC(=O)N(O)c1ccc(Cl)cc1)C(=O)NCC(=O)O)C(=O)O)C(=O)O` [[CHG(β-Ala)n]2sub., n = 6, [CHG (β-ala)6]2suberate diamide], the Ki was 7.2 ± 0.1 µM at yeast GlxI; 0.96 ± 0.06 nM at human GlxI (sodium phosphate buffer, 50 mM, pH 7, 25° C., mean (±S.D.) triplicate, read-out: Ki, hGlxI); 142 ± 1 nM at bovine liver GlxII. The “mode of inhibition of hGlxI” value at human GlxI (hGlxI from human erythrocytes, reciprocal plot FIG. 4) is recorded as “competitive inhibitor”. Also, at human GlxI (ratio of Ki bGlxII / hGlxI), the “binding selectivity hGlxI versus bGlxII” value is recorded as 148 fold. Further, the “binds more tightly to hGlxI than to yGlxI” value on human GlxI (ratio of Ki yGlxI / hGlxI) is recorded as “about 7500 fold”. Moreover, the “inhibitory activity on GSH peroxidase” value with GSH peroxidase is “no inhibitory activity”. Moreover, the “inhibitory activity on human placental GSH transferase” value in assay [3] is given as “no inhibitory activity”.

For orientation: Ki means a measure of affinity in units of concentration, obtained from inhibition or displacement.
